# Assay results taken from ChEMBL document CHEMBL1201862, “PubChem BioAssay data set” (2004).
#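 Compound exposure: 48 hours, 5 concentrations, 96-well plates. Here, GI50 denotes the concentration required for 50% inhibition of growth.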 Activity calls are given as the source filed them. Cut-off read from the data, not from the text of the source: active = GI50 up to about 1.1 µM and inactive = higher.
# Assays:
# Assay in all cases: NCI anticancer screen, dose series, 48 h
# A549 = system: A549
# OVCAR-5 = system: OVCAR-5
# TK-10 = system: TK-10
# SNB-19 = system: SNB-19
# MDA-MB-435 = system: MDA-MB-435
# EKVX = system: EKVX
# ACHN = system: ACHN
# OVCAR-3 = system: OVCAR-3
# BT-549 = system: BT-549
# SN12C = system: SN12C
# KM12 = system: KM12
# SK-MEL-28 = system: SK-MEL-28
# SF-268 = system: SF-268
# SNB-75 = system: SNB-75
# HL-60 = system: HL-60
# UACC-62 = system: UACC-62
# A498 = system: A498
# T47D = system: T47D
# RPMI-8226 = system: RPMI-8226
# HOP-92 = system: HOP-92
# NCI-H226 = system: NCI-H226
# HCC 2998 = system: HCC 2998
# IGROV-1 = system: IGROV-1
# Malme-3M = system: Malme-3M
# HT-29 = system: HT-29
# HOP-62 = system: HOP-62
# CCRF-CEM = system: CCRF-CEM
# SW-620 = system: SW-620
# NCI/ADR-RES = system: NCI/ADR-RES
# CAKI-1 = system: CAKI-1
# SR = system: SR
# PC-3 = system: PC-3
# MCF7 = system: MCF7
# OVCAR-8 = system: OVCAR-8
# NCI-H23 = system: NCI-H23
# M14 = system: M14
# SK-OV-3 = system: SK-OV-3
# LOX IMVI = system: LOX IMVI
# MDA-N = system: MDA-N
# Hs-578T = system: Hs-578T
# HCT-116 = system: HCT-116
# MOLT-4 = system: MOLT-4
# RXF 393 = system: RXF 393
# COLO 205 = system: COLO 205
# SF-295 = system: SF-295
# 786-0 = system: 786-0
# K562 = system: K562
# SF-539 = system: SF-539
# UO-31 = system: UO-31
# DU-145 = system: DU-145
# MDA-MB-231 = system: MDA-MB-231
# NCI-H460 = system: NCI-H460
# HCT-15 = system: HCT-15
# U-251 = system: U-251
# OVCAR-4 = system: OVCAR-4
# NCI-H522 = system: NCI-H522
# SK-MEL-2 = system: SK-MEL-2
# SK-MEL-5 = system: SK-MEL-5
# UACC-257 = system: UACC-257
compound,measurement,setting,value
O=C(CC(=O)N(C(=O)/C=C\c1ccccc1)c1ccc(Cl)cc1)N1N=C(c2ccccc2)C(/N=N/c2cccc([N+](=O)[O-])c2)C1=O (stereo not given),GI50,A549,5.05 µM (inactive)
same,GI50,OVCAR-5,48.9 µM (inactive)
same,GI50,TK-10,7.89 µM (inactive)
same,GI50,SNB-19,13.9 µM (inactive)
same,GI50,MDA-MB-435,9.82 µM (inactive)
same,GI50,EKVX,16.9 µM (inactive)
same,GI50,ACHN,5.13 µM (inactive)
same,GI50,OVCAR-3,2.36 µM (inactive)
same,GI50,BT-549,12.3 µM (inactive)
same,GI50,SN12C,1.29 µM (inactive)
same,GI50,KM12,1.76 µM (inactive)
same,GI50,SK-MEL-28,11.5 µM (inactive)
same,GI50,SF-268,4.23 µM (inactive)
same,GI50,SNB-75,11.9 µM (inactive)
same,GI50,HL-60,2.84 µM (inactive)
same,GI50,UACC-62,3.09 µM (inactive)
same,GI50,A498,6.03 µM (inactive)
same,GI50,T47D,4.2 µM (inactive)
same,GI50,RPMI-8226,3.35 µM (inactive)
same,GI50,HOP-92,51.4 µM (inactive)
same,GI50,NCI-H226,13.2 µM (inactive)
same,GI50,HCC 2998,3.87 µM (inactive)
same,GI50,IGROV-1,9.06 µM (inactive)
same,GI50,Malme-3M,11.3 µM (inactive)
same,GI50,HT-29,2.42 µM (inactive)
same,GI50,HOP-62,11.9 µM (inactive)
same,GI50,CCRF-CEM,1.36 µM (inactive)
same,GI50,SW-620,2.32 µM (inactive)
same,GI50,NCI/ADR-RES,2.18 µM (inactive)
same,GI50,CAKI-1,10.7 µM (inactive)
same,GI50,SR,1.57 µM (inactive)
same,GI50,PC-3,3.23 µM (inactive)
same,GI50,MCF7,3.45 µM (inactive)
same,GI50,OVCAR-8,3.78 µM (inactive)
same,GI50,NCI-H23,8.28 µM (inactive)
same,GI50,M14,7.08 µM (inactive)
same,GI50,SK-OV-3,6.32 µM (inactive)
same,GI50,LOX IMVI,2.98 µM (inactive)
same,GI50,MDA-N,7.05 µM (inactive)
same,GI50,Hs-578T,18.4 µM (inactive)
same,GI50,HCT-116,3.37 µM (inactive)
same,GI50,MOLT-4,2.56 µM (inactive)
same,GI50,RXF 393,10.3 µM (inactive)
same,GI50,COLO 205,3.45 µM (inactive)
same,GI50,SF-295,5.25 µM (inactive)
same,GI50,786-0,3.35 µM (inactive)
same,GI50,K562,4.65 µM (inactive)
same,GI50,SF-539,6.07 µM (inactive)
same,GI50,UO-31,> 100 µM (inactive)
same,GI50,DU-145,13.3 µM (inactive)
same,GI50,MDA-MB-231,0.971 µM (active)
same,GI50,NCI-H460,3.63 µM (inactive)
same,GI50,HCT-15,1.36 µM
same,GI50,U-251,5.82 µM (inactive)
Nc1nc2c(C(=O)O)c3ccc([N+](=O)[O-])cc3c(=O)n2c2ccccc12,GI50,A549,26.2 µM (inactive)
same,GI50,OVCAR-5,31 µM (inactive)
same,GI50,SNB-19,28.5 µM (inactive)
same,GI50,MDA-MB-435,27.2 µM (inactive)
same,GI50,EKVX,27.9 µM (inactive)
same,GI50,ACHN,33.1 µM (inactive)
same,GI50,OVCAR-3,21.1 µM (inactive)
same,GI50,BT-549,27.9 µM (inactive)
same,GI50,SN12C,18 µM (inactive)
same,GI50,KM12,25.8 µM (inactive)
same,GI50,SK-MEL-28,52.8 µM (inactive)
same,GI50,SF-268,33.8 µM (inactive)
same,GI50,SNB-75,3.44 µM (inactive)
same,GI50,HL-60,32.1 µM (inactive)
same,GI50,UACC-62,28.1 µM (inactive)
same,GI50,A498,43.7 µM (inactive)
same,GI50,T47D,20.4 µM (inactive)
same,GI50,RPMI-8226,27.5 µM (inactive)
same,GI50,OVCAR-4,31 µM (inactive)
same,GI50,NCI-H226,21.2 µM (inactive)
same,GI50,HCC 2998,32.3 µM (inactive)
same,GI50,IGROV-1,26.9 µM (inactive)
same,GI50,Malme-3M,40 µM (inactive)
same,GI50,HT-29,34.7 µM (inactive)
same,GI50,HOP-62,22.5 µM (inactive)
same,GI50,CCRF-CEM,42.1 µM (inactive)
same,GI50,SW-620,39 µM (inactive)
same,GI50,NCI/ADR-RES,20.5 µM (inactive)
same,GI50,CAKI-1,34.4 µM (inactive)
same,GI50,NCI-H522,19.9 µM (inactive)
same,GI50,SR,24.3 µM (inactive)
same,GI50,PC-3,24.5 µM (inactive)
same,GI50,MCF7,16.2 µM (inactive)
same,GI50,OVCAR-8,18.7 µM (inactive)
same,GI50,NCI-H23,22.6 µM (inactive)
same,GI50,SK-MEL-2,24.9 µM (inactive)
same,GI50,M14,21.4 µM (inactive)
same,GI50,SK-OV-3,21 µM (inactive)
same,GI50,LOX IMVI,11.9 µM (inactive)
same,GI50,MDA-N,22.8 µM (inactive)
same,GI50,Hs-578T,23.8 µM (inactive)
same,GI50,HCT-116,16.9 µM (inactive)
same,GI50,MOLT-4,14.4 µM (inactive)
same,GI50,RXF 393,14.5 µM (inactive)
same,GI50,COLO 205,34.8 µM (inactive)
same,GI50,SF-295,29.1 µM (inactive)
same,GI50,SK-MEL-5,24.7 µM (inactive)
same,GI50,786-0,20.6 µM (inactive)
same,GI50,K562,19.5 µM (inactive)
same,GI50,UO-31,29.8 µM (inactive)
same,GI50,DU-145,16.5 µM (inactive)
same,GI50,MDA-MB-231,24.9 µM (inactive)
same,GI50,NCI-H460,30.1 µM (inactive)
same,GI50,HCT-15,22.9 µM
same,GI50,U-251,27.2 µM (inactive)
Cc1cnc2sn(-c3ccc(Br)cc3)c(=O)c2c1,GI50,A549,36.6 µM (inactive)
same,GI50,OVCAR-5,44.2 µM (inactive)
same,GI50,TK-10,93.5 µM (inactive)
same,GI50,SNB-19,40.9 µM (inactive)
same,GI50,MDA-MB-435,40 µM (inactive)
same,GI50,EKVX,41.2 µM (inactive)
same,GI50,ACHN,35.6 µM (inactive)
same,GI50,OVCAR-3,22.2 µM (inactive)
same,GI50,BT-549,35 µM (inactive)
same,GI50,SN12C,59.6 µM (inactive)
same,GI50,KM12,74.8 µM (inactive)
same,GI50,SK-MEL-28,27.7 µM (inactive)
same,GI50,SF-268,38.7 µM (inactive)
same,GI50,SNB-75,84.9 µM (inactive)
same,GI50,HL-60,18.3 µM (inactive)
same,GI50,UACC-62,33.4 µM (inactive)
same,GI50,T47D,13.4 µM (inactive)
same,GI50,RPMI-8226,33.2 µM (inactive)
same,GI50,OVCAR-4,26.2 µM (inactive)
same,GI50,HOP-92,26.9 µM (inactive)
same,GI50,NCI-H226,52 µM (inactive)
same,GI50,HCC 2998,22.7 µM (inactive)
same,GI50,IGROV-1,53.6 µM (inactive)
same,GI50,Malme-3M,15.1 µM (inactive)
same,GI50,HT-29,28.9 µM (inactive)
same,GI50,HOP-62,27.7 µM (inactive)
same,GI50,CCRF-CEM,24.4 µM (inactive)
same,GI50,SW-620,28.6 µM (inactive)
same,GI50,NCI/ADR-RES,70.1 µM (inactive)
same,GI50,CAKI-1,16.7 µM (inactive)
same,GI50,NCI-H522,2.37 µM (inactive)
same,GI50,SR,40.7 µM (inactive)
same,GI50,PC-3,36.6 µM (inactive)
same,GI50,MCF7,30.3 µM (inactive)
same,GI50,OVCAR-8,62.5 µM (inactive)
same,GI50,NCI-H23,33 µM (inactive)
same,GI50,SK-MEL-2,> 100 µM (inactive)
same,GI50,M14,41.2 µM (inactive)
same,GI50,SK-OV-3,41.6 µM (inactive)
same,GI50,LOX IMVI,23.3 µM (inactive)
same,GI50,MDA-N,> 100 µM (inactive)
same,GI50,Hs-578T,30.7 µM (inactive)
same,GI50,HCT-116,42.8 µM (inactive)
same,GI50,MOLT-4,30.4 µM (inactive)
same,GI50,COLO 205,26.8 µM (inactive)
same,GI50,SF-295,26.5 µM (inactive)
same,GI50,SK-MEL-5,42.6 µM (inactive)
same,GI50,786-0,37.5 µM (inactive)
same,GI50,SF-539,31.3 µM (inactive)
same,GI50,UO-31,43.9 µM (inactive)
same,GI50,DU-145,50.5 µM (inactive)
same,GI50,MDA-MB-231,30.5 µM (inactive)
same,GI50,UACC-257,45.2 µM (inactive)
same,GI50,NCI-H460,32.5 µM (inactive)
same,GI50,HCT-15,26.6 µM
same,GI50,U-251,27.1 µM (inactive)
